The text below walks through data of patent US8394426B2, “Composition comprising an extract of hardy kiwi for preventing or treating baldness disorders or seborrheic skin disorders” (Viromed Co., Ltd., priority 2004, dated 2013).

The assay deals with blood DHT. Briefly: concentration of blood DHT in mice after oral administration, measured by ELISA. The format is in vivo. The conditions noted are these: male C57BL/6 mice, oral finasteride 100 μg/mouse/day for 3 weeks, FIG. 4. Background: An ELISA detects its analyte on a solid surface through an enzyme-linked reagent.

Experimental: To confirm the inhibition effect of hardy kiwi extract on the concentration of blood DHT, the water extract and ethanol extract of fruit of Actinidia arguta were administrated into mice and the concentration of blood DHT were determined by following procedure;
Male C57BL/6 mice, aged 6 weeks (Seoul national university animal experimental center) were acclimated to the environment for 1 week. After 1 week, 16 mice were divided into 4 groups and each group was orally administered with 100 μl of the water extract of fruit of Actinidia arguta (1500 μg/mouse/day), 100 μl of the ethanol extract of fruit of Actinidia arguta (1500 μg/mouse/day), 100 μl of finasteride (100 μg/mouse/day), and 100 μl of drinking water (100 μg/mouse/day) for 3 weeks, respectively. After mice were sacrificed and the blood serum and spleen organ were colllected therefrom, the concentration of blood DHT was measured by ELISA (IBL-Hamburg GmbH) method. […]
After 1 week, 8 mice were divided into 2 groups and each group was orally administered with 100 μl of the water extract of dried stem of A. arguta (1500 μg/mouse/day) and 100 μl of drinking water (100 μg/mouse/day) for 3 weeks, respectively. After mice were sacrificed and the blood serum and spleen organ was colllected therefrom, the concentration of blood DHT was measured.

`CC(C)(C)NC(=O)[C@H]1CC[C@H]2[C@@H]3CC[C@H]4NC(=O)C=C[C@]4(C)[C@H]3CC[C@]12C` [finasteride]: the “decrease of concentration of blood DHT” value is on record as “about 90%”.
